Where a name gives a salt, the structure may show the parent alone.
Tested on: RSV Long strain
Experiment: Viral cytopathic effect (CPE) assay, anti-RSV activity
Type: cell-based, Respiratory Syncytial Virus
Settings: RSV Long strain (ATCC); cell viability after 6 days, Cell Counting kit-8
Experimental: Viral cytopathic effect (CPE) assay: To measure anti-RSV activity of compounds, 96-well plates are seeded with 6×10^3 cells per well in Dulbecco's modified Eagle's medium (DMEM) containing 10% fetal bovine serum (FBS). Cells are infected the next day with sufficient RSV Long strain (ATCC) to produce an approximately 80-90% cytopathic effect after 6 days, in the presence of serial half-log diluted compound in a total volume of 200 μL per well. The viability of cells is assessed after 6 days using Cell Counting kit-8 (Dojindo Molecular Technologies). The absorbance at 450 nm and referenced at 630 nm is measured to determine 50% effective concentration (EC50).
The compounds of the present invention were tested for their anti-RSV activity, and the activation as described herein. The Examples were tested in the above assay and found to have EC50 of about 0.0001 μM to about 10 μM.

Structure (SMILES)	EC50 [µM]
Cc1ccc2nc(N3CCS(=O)(=O)c4ccccc4C3)nc(NCC(F)CCN)c2c1 (stereo not shown) [Example 62-5, N^˜1^˜-[2-(1,1-Dioxido-2,3-dihydro-1,4-benzothiazepin-4(5H)-yl)-6-methylquinazolin-4-yl]-2-fluorobutane-1,4-diamine]	0.017
Cc1ccc2nc(N3CCS(=O)(=O)c4ccccc4C3)nc(NCCC(F)CN)c2c1 (stereo not shown) [Example 62-4, N^˜4^˜-[2-(1,1-Dioxido-2,3-dihydro-1,4-benzothiazepin-4(5H)-yl)-6-methylquinazolin-4-yl]-2-fluorobutane-1,4-diamine]	0.019
Cc1ccc2nc(N3CC[S+]([O-])c4ccccc4C3)nc(NCC3(CN)COC3)c2c1 (stereo not shown) [Example 62-1, N-{[3-(Aminomethyl)oxetan-3-yl]methyl}-6-methyl-2-(1-oxido-2,3-dihydro-1,4-benzothiazepin-4(5H)-yl)quinazolin-4-amine]	0.0003

Same assay, conditions: human respiratory syncytial virus, 144 h, RSV Long strain (ATCC); cell viability after 6 days, Cell Counting kit-8

Structure (SMILES)	EC50 [µM]
NCCNc1cc(N2CCCc3cc(F)ccc3C2)nc2ccccc12 [Example 118-16, N-[2-(7-Fluoro-1,3,4,5-tetrahydro-2H-2-benzazepin-2-yl)quinolin-4-yl]ethane-1,2-diamine]	0.695
CC(=O)NCCNc1cc(N2CCS(=O)(=O)c3ccccc3C2)nc2ccc(C)cc12 [Example 63-1, N-(2-{[2-(1,1-Dioxido-2,3-dihydro-1,4-benzothiazepin-4(5H)-yl)-6-methylquinolin-4-yl]amino}ethyl)acetamide]	3.13
Cc1ccc2nc(N3CCS(=O)(=O)c4ccccc4C3)cc(NC(=O)[C@H](C)N)c2c1 [Example 40-3, N-[2-(1,1-Dioxido-2,3-dihydro-1,4-benzothiazepin-4(5H)-yl)-6-methylquinolin-4-yl]alaninamide]	0.917
NCCNS(=O)(=O)c1cc(N2CCCc3ccccc3C2)nc2ccccc12 [Example 132, N-(2-Aminoethyl)-2-(1,3,4,5-tetrahydro-2H-2-benzazepin-2-yl)quinoline-4-sulfonamide trifluoroacetate]	7.81
COc1ccc2c(c1)S(=O)(=O)CCN(c1cc(N)c3cc(C)ccc3n1)C2 [Example 20-1, 2-(8-Methoxy-1,1-dioxido-2,3-dihydro-1,4-benzothiazepin-4(5H)-yl)-6-methylquinolin-4-amine]	0.073
Cc1ccc2nc(N3CCCc4ccc(F)cc4C3)cc(NCCN)c2c1 [Example 118-4, N-[2-(8-Fluoro-1,3,4,5-tetrahydro-2H-2-benzazepin-2-yl)-6-methylquinolin-4-yl]ethane-1,2-diamine]	0.104
CCc1ccc2nc(N3CCS(=O)(=O)c4ccccc4C3)cc(NCCN)c2c1 [Example 9-10, N-[2-(1,1-Dioxido-2,3-dihydro-1,4-benzothiazepin-4(5H)-yl)-6-ethylquinolin-4-yl]ethane-1,2-diamine]	0.037
Cc1ccc2nc(N3CCS(=O)(=O)c4ccccc4C3)cc(Nc3cccc(N)c3)c2c1 [Example 15-1, N-[2-(1,1-Dioxido-2,3-dihydro-1,4-benzothiazepin-4(5H)-yl)-6-methylquinolin-4-yl]benzene-1,3-diamine]	7.89
NCCCNc1cc(N2CCS(=O)(=O)c3ccccc3C2)nc2ccc(C3CC3)cc12 [Example 51, N-[6-Cyclopropyl-2-(1,1-dioxido-2,3-dihydro-1,4-benzothiazepin-4(5H)-yl)quinolin-4-yl]propane-1,3-diamine]	0.056
Nc1cc(N2CCS(=O)(=O)c3cc(OCCCO)ccc3C2)nc2ccccc12 [Example 34, 3-{[4-(4-Aminoquinolin-2-yl)-1,1-dioxido-2,3,4,5-tetrahydro-1,4-benzothiazepin-8-yl]oxy}propan-1-ol]	2.09
NCCNc1cc(N2CCS(=O)(=O)c3ccccc3C2)nc2ccc(F)cc12 [Example 9-9, N-[2-(1,1-Dioxido-2,3-dihydro-1,4-benzothiazepin-4(5H)-yl)-6-fluoroquinolin-4-yl]ethane-1,2-diamine]	0.157
Cc1ccc2nc(N3CC[S+]([O-])c4ccccc4C3)cc(NCCN)c2c1 (stereo not shown) [Example 18-10, N-[6-Methyl-2-(1-oxido-2,3-dihydro-1,4-benzothiazepin-4(5H)-yl)quinolin-4-yl]ethane-1,2-diamine]	0.011
CCc1ccc2nc(N3CCS(=O)(=O)c4ccccc4C3)cc(CCC(=O)O)c2c1 [Example 95, 3-[2-(1,1-Dioxido-2,3-dihydro-1,4-benzothiazepin-4(5H)-yl)-6-ethylquinolin-4-yl]propanoic acid]	3.04
Cc1ccc2nc(N3CCSc4ccccc4C3)cc(N3CCC(N)C3)c2c1 (stereo not shown) [Example 4-4, 1-[2-(2,3-Dihydro-1,4-benzothiazepin-4(5H)-yl)-6-methylquinolin-4-yl]pyrrolidin-3-amine]	0.208
Cc1ccc2nc(N3CCS(=O)(=O)c4ccccc4C3)cc(N[C@@H]3CCOC3)c2c1 [Example 3-49, 2-(1,1-Dioxido-2,3-dihydro-1,4-benzothiazepin-4(5H)-yl)-6-methyl-N-[(3R)-tetrahydrofuran-3-yl]quinolin-4-amine]	0.099
Cc1ccc2c(c1)S(=O)(=O)CCN(c1cc(NCC3(N)COC3)c3ccccc3n1)C2 [Example 2-4, N-[(3-Aminooxetan-3-yl)methyl]-2-(8-methyl-1,1-dioxido-2,3-dihydro-1,4-benzothiazepin-4(5H)-yl)-quinolin-4-amine]	0.081

Structure (SMILES)	EC50 [µM]
C=Cc1ccc2nc(N3CCS(=O)(=O)c4ccccc4C3)cc(NCCCN)c2c1 [Example 53, N-[2-(1,1-Dioxido-2,3-dihydro-1,4-benzothiazepin-4(5 H)-yl)-6-ethenylquinolin-4-yl]propane-1,3-diamine]	0.094
Cc1ccc2nc(N3CCS(=O)(=O)c4ccccc4C3)cc(NC3COC3)c2c1 [Example 3-47, 2-(1,1-Dioxido-2,3-dihydro-1,4-benzothiazepin-4(5H)-yl)-6-methyl-N-(oxetan-3-yl)quinolin-4-amine]	0.101
Cc1ccc2nc(N3CCS(=O)(=O)c4ccccc4C3)cc(NC3CCCNC3)c2c1 (stereo not shown) [Example 3-40, 2-(1,1-Dioxido-2,3-dihydro-1,4-benzothiazepin-4(5H)-yl)-6-methyl-N-(piperidin-3-yl)quinolin-4-amine]	0.022
Cc1ccc2nc(N3CCS(=O)(=O)c4ccccc4C3)cc(NCCNc3ccccn3)c2c1 [Example 46, N-[2-(1,1-Dioxido-2,3-dihydro-1,4-benzothiazepin-4(5H)-yl)-6-methylquinolin-4-yl]-N′-(pyridin-2-yl)ethane-1,2-diamine]	0.682
COc1cccc2c1S(=O)(=O)CCN(c1cc(NCC3(N)COC3)c3cc(C)ccc3n1)C2 [Example 65, N-[(3-Aminooxetan-3-yl)methyl]-2-(9-methoxy-1,1-dioxido-2,3-dihydro-1,4-benzothiazepin-4(5H)-yl)-6-methylquinolin-4-amine]	0.322
Cc1ccc2nc(N3CCS(=O)(=O)c4ccccc4C3)cc(NC(CO)CO)c2c1 [Example 11-1, 2-{[2-(1,1-Dioxido-2,3-dihydro-1,4-benzothiazepin-4(5H)-yl)-6-methylquinolin-4-yl]amino}propane-1,3-diol]	0.069
Cc1ccc2nc(N3CCC(F)(F)c4ccccc4C3)nc(NCC3(CN)COC3)c2c1 [Example 114-3, N-{[3-(Aminomethyl)oxetan-3-yl]methyl}-2-(5,5-difluoro-1,3,4,5-tetrahydro-2H-2-benzazepin-2-yl)-6-methylquinazolin-4-amine]	0.004
Cc1ccc2nc(N3CCS(=O)(=O)c4ccccc4C3)cc(N3CC[C@H](O)C3)c2c1 [Example 15-3, (3S)-1-[2-(1,1-Dioxido-2,3-dihydro-1,4-benzothiazepin-4(5H)-yl)-6-methylquinolin-4-yl]pyrrolidin-3-ol]	2.7
Cc1ccc2nc(N3CCC(F)(F)c4ccccc4C3)cc(N3C[C@@H](N)[C@H](O)C3)c2c1 (relative stereo) [Example 111-11, trans-4-Amino-1-[2-(5,5-difluoro-1,3,4,5-tetrahydro-2H-2-benzazepin-2-yl)-6-methylquinolin-4-yl]pyrrolidin-3-ol]	0.588
Cc1ccc2nc(N3CCS(=O)(=O)c4ccccc4C3)cc(NCCSCCN)c2c1 [Example 8-7, N-{2-[(2-Aminoethyl)sulfanyl]ethyl}-2-(1,1-dioxido-2,3-dihydro-1,4-benzothiazepin-4(5H)-yl)-6-methylquinolin-4-amine]	0.322
Cc1ccc2nc(N3CCS(=O)(=O)c4ccccc4C3)cc(NCCCCCN)c2c1 [Example 3-55, N-[2-(1,1-Dioxido-2,3-dihydro-1,4-benzothiazepin-4(5H)-yl)-6-methylquinolin-4-yl]pentane-1,5-diamine]	0.027
NC1(CNc2cc(N3CCS(=O)(=O)c4ccccc4C3)nc3ccccc23)COC1 [Example 3-48, N-[(3-Aminooxetan-3-yl)methyl]-2-(1,1-dioxido-2,3-dihydro-1,4-benzothiazepin-4(5H)-yl)quinolin-4-amine]	0.023
Cc1ccc2nc(N3CCS(=O)(=O)c4ccccc4C3)cc(NC3(CCO)COC3)c2c1 [Example 5-12, 3-{[2-(1,1-Dioxido-2,3-dihydro-1,4-benzothiazepin-4(5H)-yl)-6-methylquinolin-4-yl]amino}oxetan-3-ethanol]	6.25
Cc1ccc2nc(N3CCS(=O)(=O)c4ccccc4C3)cc(N3CC[C@@H](O)C3)c2c1 [Example 15-4, (3R)-1-[2-(1,1-Dioxido-2,3-dihydro-1,4-benzothiazepin-4(5H)-yl)-6-methylquinolin-4-yl]pyrrolidin-3-ol]	0.257
Cc1ccc2nc(N3CCS(=O)(=O)c4ccccc4C3)cc(NCCC3(N)COC3)c2c1 [Example 2-7, N-[2-(3-Aminooxetan-3-yl)ethyl]-2-(1,1-dioxido-2,3-dihydro-1,4-benzothiazepin-4(5H)-yl)-6-methylquinolin-4-amine]	0.234

— patent US8871756B2 (Hoffmann-La Roche Inc., priority 2011, dated 2014)
